Assay [1] concerns caveolin-1 (Tyr 14 phosphorylation). The assay can be described thus: Immunoblot of p-caveolin-1 in human astroglioma cells and HUVECs. The conditions noted are these: for suppression of H2O2-induced caveolin-1 phosphorylation: pretreated 30 min, then 5 mM H2O2 for 10 min, percentage of H2O2-treated values, three independent experiments. In kind it is cell-based. From the text:
HUVECs were utilized as a positive control. Data are representative of at least three experiments. […] Data are representative of three independent experiments.

For assay [2] the test system is unchanged. The conditions noted are these: rat primary astrocytes; 1 mM H2O2, 10 min; immunoblot. (In general: Immunoblotting shows a protein as a band on a membrane.)
Assay [3] has the same test system. The conditions noted are these: bovine pulmonary artery endothelial cells and placenta artery endothelial cells; ref [28]–[30]; cited from earlier work.
Another assay has as its system FAK phosphorylation. The assay is described as follows: Immunoblot of p-FAK. In kind it is cell-based, human. The conditions noted are these: CRT-MG cells; 5 mM H2O2, 10 min. The procedure: (§1) Figure 7 SHP-2 and CSK reciprocally regulate H2O2-induced Src activation. […] Tubulin was evaluated as a loading control. Bottom panel, Densitometric quantification of p-Src Y419 levels (empty bars) and p-Src Y530 levels (filled bars), normalized to the level of total Src. Results are expressed as percentage of H2O2-treated values in control siRNA presented as mean ± SD. (*p<0.05 vs. H2O2-treated cells transfected with control siRNA; #p<0.05 between SHP-2 siRNA-transfected cells and CSK siRNA-transfected cells; n = 3). (B) Inhibition of SHP-2 by PTPi IV attenuated the H2O2-induced activation of the Src signaling pathway. CRT-MG cells were treated with 5 mM H2O2 or not for 10 min in the presence of 5 or 10 µM PTPi IV for 30 min, and lysed in cold-RIPA buffer. Antibodies against p-SHP-2, SHP-2, p-Src, Src, p-FAK, FAK, p-ERK, ERK, and tubulin were used for immunoblotting. Bottom panel, Densitometric quantification of p-Src Y419 levels (empty bars) and p-Src Y530 levels (filled bars), normalized to the level of total Src. […] (p, phospho).

For a further assay, the system named is caveolin-1/SHP-2 complex. The conditions noted are these: CRT-MG cells; 5 mM H2O2, 10 min; PLA red dots; repeated 4 times.
Another assay relates to caveolin-1/CSK complex. The assay is described as follows: Co-immunoprecipitation of caveolin-1 and CSK. In kind it is cell-based, human. The conditions noted are these: CRT-MG cells; H2O2 10 min; IP anti-caveolin-1. As for the experimental part: cDNA encoding full-length human caveolin-1 was obtained from Thermo Scientific (Waltham, MA, USA). The Y14A caveolin-1 mutant was generated using a QuickChange site-directed mutagenesis kit (Stratagene, Santa Clara, CA, USA) using PCR. pCMV-SPORT6-caveolin-1 cDNA (25 ng) was used as a template and added to dNTP mix, Pfu buffer, Pfu turbo DNA polymerase and 125 ng of each of the mutagenic primers: sense, 5′-[…]-3′ and antisense, 5′-[…]-3′. Samples were then incubated at 95°C for 1 min, then for 20 cycles of 95°C for 1 min, 65°C for 4 min, and 68°C for 12 min. The methylated parental DNA template in the PCR product was digested using the DpnI (10 U) restriction enzyme for 3 h at 37°C. […] After mutagenesis, 1 µg of caveolin-1 wild-type (WT) or Y14A mutant DNA was transfected into HEK 293T cells using VIVAMAGIC transfection reagent (VIVAGEN, Seongnam, Korea) containing 10% FBS according to the manufacturer’s instructions for 24 h before treatment with 5 mM H2O2 for 10 min; the cells were then analyzed by immunoblotting.
Cells were plated and transfected with green fluorescence protein (GFP) siRNA (Samchully Pharm Co. Ltd., Seoul, Korea) as a control group and human CSK siRNA and human SHP-2 siRNA from Bioneer (Daejeon, Korea) using Lipofectamine RNAiMAX (Invitrogen, Carlsbad, CA, USA) according to the manufacturer’s instructions to achieve a final concentration of 300 nM. […]

A further assay relates to ERK phosphorylation. The assay can be described thus: Immunoblot of p-ERK. The conditions noted are these: CRT-MG cells; 5 mM H2O2, 10 min. In kind it is cell-based, human. As for the experimental part: Cells were plated and transfected with green fluorescence protein (GFP) siRNA (Samchully Pharm Co. Ltd., Seoul, Korea) as a control group and human CSK siRNA and human SHP-2 siRNA from Bioneer (Daejeon, Korea) using Lipofectamine RNAiMAX (Invitrogen, Carlsbad, CA, USA) according to the manufacturer’s instructions to achieve a final concentration of 300 nM.
as §1

A further assay has as its system recombinant GST-CSK. The assay is described as follows: PepSPOTs assay, rGST-CSK. In kind it is binding. The conditions noted are these: 13-mer peptides of caveolin-1 (1–85) with phosphorylated Tyr 6, 14, 25, 42 on cellulose membrane; 1 µg rGST-CSK, overnight; repeated 3 times. The procedure:
(§2) Identification of binding sites for recombinant SHP-2 and CSK in the caveolin-1 protein was performed using PepSPOTs (JPT Peptide Technologies GmbH, Berlin, Germany). Synthetic peptide sequences of caveolin-1 (1–85 and 1–28) were used in this study. The peptide library contained either 13-mer peptides that overlapped by 5 residues or 13-mer peptides that overlapped by 8 residues. Each spot carried approximately 5 nmol of peptide covalently bound to the cellulose-betaalanine-membrane (N-terminus: acetyl). Two identical membranes were incubated overnight with either recombinant GST-SHP-2 (rGST-SHP-2) or GST-CSK (rGST-CSK) respectively, and immunoblotting was performed to detect rGST-SHP-2/caveolin-1 peptide and rGST-CSK/caveolin-1 peptide interactions.
(§3) Figure 4 Both SHP-2 and CSK bind specifically to phosphorylated caveolin-1 at Tyr 14. (A) Schematic diagram of caveolin-1. (B) A peptide array assay was performed to identify the binding site for recombinant SHP-2 and CSK in the caveolin-1 protein. Schematic diagram of the synthetic peptide sequences of caveolin-1 (1–85) spotted on the membrane used for study is shown in the left panel. The peptide numbering starts with 1 in the left corner and the phosphorylated tyrosine residues are indicated in bold. […]

For a further assay, the target named is T1, recombinant GST-SHP-2 (Homo sapiens, UniProt Q06124).
T1 construct: purchased Abnova (Taipei, Taiwan)
T1 sequence (Q06124 1-593): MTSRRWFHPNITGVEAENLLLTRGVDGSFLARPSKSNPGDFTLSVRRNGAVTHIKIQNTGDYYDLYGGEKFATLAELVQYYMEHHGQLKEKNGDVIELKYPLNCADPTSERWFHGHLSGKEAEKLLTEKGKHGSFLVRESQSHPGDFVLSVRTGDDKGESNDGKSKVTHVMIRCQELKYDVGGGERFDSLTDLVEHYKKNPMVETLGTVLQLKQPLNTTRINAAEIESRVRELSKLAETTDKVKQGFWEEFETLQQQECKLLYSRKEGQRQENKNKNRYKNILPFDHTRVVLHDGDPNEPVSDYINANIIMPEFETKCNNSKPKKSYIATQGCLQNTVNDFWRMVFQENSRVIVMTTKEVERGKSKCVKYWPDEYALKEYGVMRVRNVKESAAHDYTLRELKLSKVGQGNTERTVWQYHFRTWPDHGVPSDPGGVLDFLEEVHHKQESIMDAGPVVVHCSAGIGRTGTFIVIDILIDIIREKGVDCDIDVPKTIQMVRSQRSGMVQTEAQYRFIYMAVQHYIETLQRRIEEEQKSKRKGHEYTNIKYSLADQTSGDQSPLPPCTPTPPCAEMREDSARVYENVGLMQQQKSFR
The assay is described as follows: PepSPOTs assay, rGST-SHP-2. In kind it is binding. The conditions noted are these: 13-mer peptides of caveolin-1 (1–85) with phosphorylated Tyr 6, 14, 25, 42 on cellulose membrane; 1 µg rGST-SHP-2, overnight; repeated 3 times. The procedure:
as §2, §3

Data on four compounds can be found in publication PMC3954793, “SHP-2 Binds to Caveolin-1 and Regulates Src Activity via Competitive Inhibition of CSK in Response to H2O2 in Astrocytes” (PLoS ONE, 2014).

Entries after “also recorded” stand apart in the source; their conditions may differ. Read-outs that look alike come from different tables or passages of the source. Square brackets hold non-standard residues; d marks the D form. Ends that are not written are not given here. pY = N[C@@H](Cc1ccc(OP(=O)(O)O)cc1)C(=O)O

Turning to `OO` [H2O2, hydrogen peroxide], in assay [1] (CRT-MG cells, H2O2 0–5 mM, 10 min, normalized to tubulin, mean ± SD from three experiments), the “level of Tyr-phosphorylated caveolin-1, dose dependence” value is listed as “dose-dependent increase in the level of Tyr-phosphorylated caveolin-1 up to a concentration of 5 mM”. The “phosphorylation of caveolin-1 at Tyr 14” value in assay [1] (HUVECs (positive control), 1 mM H2O2, 10 min, immunoblot) is reported as “induced the phosphorylation of caveolin-1”; in [2] it was “induced the phosphorylation of caveolin-1; also recorded: strongly induced phosphorylation of caveolin-1 at Tyr 14”; in [3], “induces the phosphorylation of caveolin-1 at Tyr 14”. Besides, the “phosphorylation of FAK, H2O2-induced” value in the assay on FAK phosphorylation is “leads to phosphorylation of ERK 1/2 and FAK”. In addition, the “direct interaction between SHP-2 and caveolin-1” value in the assay with caveolin-1/SHP-2 complex is “a direct interaction between SHP-2 and caveolin-1 (indicated by red dots) occurred”. In addition, in the assay with caveolin-1/CSK complex, the “complex formation between caveolin-1 and CSK” value was “complex formation occurred between caveolin-1 and CSK”. Further, in the assay on ERK phosphorylation, the “phosphorylation of ERK 1/2, H2O2-induced” value is “leads to phosphorylation of ERK 1/2 and FAK”.

Take `CC(=O)N[C@@H](CS)C(=O)O` [NAC, N-acetyl-L-cysteine]: in [1] (CRT-MG cells), the “suppression of H2O2-induced caveolin-1 phosphorylation” value is reported as “considerably suppressed H2O2-induced caveolin-1 phosphorylation in a dose-dependent manner; also recorded: modest compared to catalase”.

For the compound catalase, in assay [1] (CRT-MG cells), the “suppression of H2O2-induced caveolin-1 phosphorylation” value was “considerably suppressed H2O2-induced caveolin-1 phosphorylation in a dose-dependent manner; also recorded: completely abrogates H2O2-induced caveolin-1 phosphorylation”.

Regarding “spot 2: residues 9–21 of caveolin-1 (spot 2), which included Tyr 14 (Ac-SEGHL[pY]TVPIREQ)”, the “binding of rGST-CSK to caveolin-1 peptide spots” value in the assay on recombinant GST-CSK is listed as “strong binding”. For the same compound, the “binding of rGST-SHP-2 to caveolin-1 peptide spots” value in the assay with recombinant GST-SHP-2 is listed as “only 1 spot of bound recombinant SHP-2 was detected”.
